How the values were obtained:
[1] = molecular target: T1, 5-hydroxytryptamine receptor 2C (Homo sapiens, UniProt P28335); assay: In vitro binding affinity against 5-hydroxytryptamine 2C receptor using [3H]mesulergine as radioligand expressed in CHO cells; type: cell-based
T1 sequence (P28335 whole entry): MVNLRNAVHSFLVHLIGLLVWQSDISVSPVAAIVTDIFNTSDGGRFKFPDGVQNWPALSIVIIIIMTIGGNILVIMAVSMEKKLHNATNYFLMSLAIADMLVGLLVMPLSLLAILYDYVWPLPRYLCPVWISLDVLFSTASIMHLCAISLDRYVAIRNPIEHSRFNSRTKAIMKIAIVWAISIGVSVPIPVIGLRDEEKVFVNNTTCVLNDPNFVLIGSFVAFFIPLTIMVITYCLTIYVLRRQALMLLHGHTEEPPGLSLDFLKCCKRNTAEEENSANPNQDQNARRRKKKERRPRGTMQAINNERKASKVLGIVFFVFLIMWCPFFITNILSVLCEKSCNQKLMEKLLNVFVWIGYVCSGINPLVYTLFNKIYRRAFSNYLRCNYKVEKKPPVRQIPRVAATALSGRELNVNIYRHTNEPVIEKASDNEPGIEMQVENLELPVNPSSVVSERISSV

[2] = molecular target: 5-hydroxytryptamine receptor 2A (Homo sapiens, UniProt P28223); assay: In vitro binding affinity against 5-hydroxytryptamine 2A receptor using [125I]R91150 as radioligand expressed in L929 cells; type: cell-based
Mus musculus = assay: In vivo effective dose for the reversal of RO-4-1284 induced hypothermia in mice; type: functional
Rattus norvegicus [3] = assay: In vivo effective dose for the reversal of tryptamine-induced bilateral convulsions in rat; type: functional
Rattus norvegicus [4] = assay: In vivo effective for the antagonism of m-chlorophenyl-piperazine induced anxiety in rat; type: functional
Rattus norvegicus [5] = assay: In vivo effective dose for the reversal of tryptamine-induced cyanosis in rat; type: functional

5-hydroxytryptamine receptor 2A, sequence (P28223 whole entry): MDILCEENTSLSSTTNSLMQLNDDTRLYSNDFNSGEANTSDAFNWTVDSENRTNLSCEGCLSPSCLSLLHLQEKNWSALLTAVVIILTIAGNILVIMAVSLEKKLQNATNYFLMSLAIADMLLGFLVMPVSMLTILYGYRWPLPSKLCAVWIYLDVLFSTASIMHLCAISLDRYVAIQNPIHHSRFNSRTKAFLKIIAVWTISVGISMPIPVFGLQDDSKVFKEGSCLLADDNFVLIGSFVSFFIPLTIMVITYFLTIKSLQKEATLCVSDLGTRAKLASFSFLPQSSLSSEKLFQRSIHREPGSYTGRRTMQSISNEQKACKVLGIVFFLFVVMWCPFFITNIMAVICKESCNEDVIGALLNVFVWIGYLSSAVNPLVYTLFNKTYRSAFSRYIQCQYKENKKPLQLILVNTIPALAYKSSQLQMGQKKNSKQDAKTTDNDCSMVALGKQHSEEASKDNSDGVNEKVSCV

Ki [1]	Ki [2]	SMILES	ED50 (Mus musculus)	ED50 (Rattus norvegicus [3])	ED50 (Rattus norvegicus [4])	ED50 (Rattus norvegicus [5])
87 nM		CN(C)C[C@H]1C[C@H]2c3ccccc3Oc3ccc(Br)cc3[C@H]2O1				
183 nM	307 nM	Brc1ccc2c(c1)[C@H]1O[C@H](Cn3oc4ccc(-c5ccccc5)cc43)C[C@H]1c1ccccc1O2				
183 nM	92 nM	CN(C)C[C@H]1C[C@H]2c3ccccc3Oc3ccccc3[C@@H]2O1	1.25 mg/kg	3.15 mg/kg	> 2.5 mg/kg	> 2.5 mg/kg
356 nM	306 nM	O=C1CCN1c1ccc2on(C[C@@H]3C[C@H]4c5ccccc5Oc5ccc(Br)cc5[C@H]4O3)c2c1				
	104 nM	CN(C)C[C@@H]1C[C@H]2c3ccccc3Oc3ccc(F)cc3[C@H]2O1	0.02 mg/kg	0.5 mg/kg	0.5 mg/kg	0.5 mg/kg
179 nM	16 nM	CN(C)C[C@H]1C[C@@H]2c3ccccc3Oc3ccccc3[C@H]2O1	> 2.5 mg/kg	> 2.5 mg/kg		> 2.5 mg/kg
63 nM	423 nM	CN(C)C[C@H]1C[C@H]2c3ccccc3Oc3ccc(F)cc3[C@H]2O1	0.13 mg/kg	1.98 mg/kg	> 2.5 mg/kg	5 mg/kg
		CN(C)C[C@@H]1C[C@H]2c3ccccc3Oc3ccc(Cl)cc3[C@H]2O1	0.5 mg/kg	0.08 mg/kg	> 2.5 mg/kg	0.2 mg/kg
183 nM	185 nM	N#Cc1ccc2on(C[C@@H]3C[C@H]4c5ccccc5Oc5ccc(Br)cc5[C@H]4O3)c2c1				
6 nM		CN(C)C[C@@H]1C[C@H]2c3ccccc3Oc3ccc(Br)cc3[C@H]2O1	3.15 mg/kg	0.32 mg/kg	> 2.5 mg/kg	0.79 mg/kg
270 nM	255 nM	Nc1ccc2on(C[C@@H]3C[C@H]4c5ccccc5Oc5ccc(Br)cc5[C@H]4O3)c2c1				
246 nM	97 nM	CCOC(=O)c1ccc2on(C[C@@H]3C[C@H]4c5ccccc5Oc5ccc(Br)cc5[C@H]4O3)c2c1				
21 nM		CN(C)C[C@H]1C[C@H]2c3ccccc3Oc3ccc(Cl)cc3[C@H]2O1	0.05 mg/kg	0.32 mg/kg	> 2.5 mg/kg	0.8 mg/kg
235 nM	193 nM	COc1ccc2c(c1)[C@H]1O[C@@H](CN(C)C)C[C@H]1c1ccccc1O2				
> 5450 nM	306 nM	Brc1ccc2c(c1)[C@H]1O[C@H](Cn3oc4ccc(N5CCOCC5)cc43)C[C@H]1c1ccccc1O2				
58 nM	36 nM	Cc1ccc2on(C[C@@H]3C[C@H]4c5ccccc5Oc5ccc(Br)cc5[C@H]4O3)c2c1	1.99 mg/kg	0.5 mg/kg	0.8 mg/kg	0.5 mg/kg
4100 nM	189 nM	Brc1ccc2c(c1)[C@H]1O[C@H](Cn3oc4ccc(CN5CCOCC5)cc43)C[C@H]1c1ccccc1O2				
	22 nM	COc1ccc2c(c1)[C@H]1O[C@H](CN(C)C)C[C@H]1c1ccccc1O2	0.79 mg/kg	0.32 mg/kg	> 2.5 mg/kg	1.26 mg/kg
157 nM	95 nM	CN(C)c1ccc2on(C[C@@H]3C[C@H]4c5ccccc5Oc5ccc(Br)cc5[C@H]4O3)c2c1				

Source: ChEMBL document CHEMBL1139601, “Novel 2-N,N-dimethylaminomethyl-2,3,3a,12b-tetrahydrodibenzo[b,f]furo[2,3-d]oxepin derivatives displaying combined norepinephrine reuptake inhibition and 5-HT2A/2C receptor antagonism” (Bioorg Med Chem Lett, 2005)
